# From US20090226907A1, “ASSAY FOR DETECTION OF TELOMERASE ACTIVITY” (Sienna Cancer Diagnostics Limited, priority 2005, published 2009)
# {SH-C6} = thiol hexyl linker
# Molecular target: T1, telomerase (Homo sapiens, UniProt O14746)
# T1 construct: showing the effect of TBT oligonucleotide length in HEK293T cell lysates; endogenous in cells; host or cells: HEK293T cell lysate (CHAPS lysis buffer)
# Experiment: TBT telomerase assay: effect of oligonucleotide length in HEK293T cell lysates
# Format: biochemical
# Conditions: luminescence, compared with short (0.5 repeat) and 2.5 repeat versions, FIG. 16
# Text: FIG. 16 is a graphical representation showing the effect of TBT oligonucleotide length in HEK293T cell lysates. […]
# T1 sequence (O14746 whole entry): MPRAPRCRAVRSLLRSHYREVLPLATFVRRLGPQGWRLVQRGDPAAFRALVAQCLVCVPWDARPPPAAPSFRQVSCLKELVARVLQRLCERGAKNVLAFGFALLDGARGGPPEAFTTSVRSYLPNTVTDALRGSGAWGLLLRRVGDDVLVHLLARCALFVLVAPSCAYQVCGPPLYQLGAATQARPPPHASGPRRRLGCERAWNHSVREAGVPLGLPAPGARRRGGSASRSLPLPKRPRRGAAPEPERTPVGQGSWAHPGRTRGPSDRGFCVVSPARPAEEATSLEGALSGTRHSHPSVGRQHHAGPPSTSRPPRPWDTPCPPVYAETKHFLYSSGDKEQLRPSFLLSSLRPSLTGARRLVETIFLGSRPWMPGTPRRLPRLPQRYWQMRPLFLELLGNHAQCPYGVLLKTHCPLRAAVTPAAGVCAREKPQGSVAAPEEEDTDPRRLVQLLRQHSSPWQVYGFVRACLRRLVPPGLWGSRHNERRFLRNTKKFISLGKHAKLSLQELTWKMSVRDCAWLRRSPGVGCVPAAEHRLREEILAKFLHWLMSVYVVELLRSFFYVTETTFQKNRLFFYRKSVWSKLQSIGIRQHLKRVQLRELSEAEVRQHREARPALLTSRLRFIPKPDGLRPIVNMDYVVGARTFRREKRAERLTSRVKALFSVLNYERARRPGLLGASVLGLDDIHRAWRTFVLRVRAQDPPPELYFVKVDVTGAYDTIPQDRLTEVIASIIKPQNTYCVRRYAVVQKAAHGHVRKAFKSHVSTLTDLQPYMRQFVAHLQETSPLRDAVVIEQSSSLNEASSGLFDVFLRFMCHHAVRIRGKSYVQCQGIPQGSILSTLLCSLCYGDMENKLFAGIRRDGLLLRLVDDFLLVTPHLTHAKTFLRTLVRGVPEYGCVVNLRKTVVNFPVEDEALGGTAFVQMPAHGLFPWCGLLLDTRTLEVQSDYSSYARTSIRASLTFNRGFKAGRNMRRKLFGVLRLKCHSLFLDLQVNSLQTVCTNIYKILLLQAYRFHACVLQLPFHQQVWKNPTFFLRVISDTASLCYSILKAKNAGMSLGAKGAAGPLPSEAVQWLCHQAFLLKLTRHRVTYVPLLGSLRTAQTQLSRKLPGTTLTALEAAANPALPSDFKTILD
# T1 sequence (O60832 whole entry partner): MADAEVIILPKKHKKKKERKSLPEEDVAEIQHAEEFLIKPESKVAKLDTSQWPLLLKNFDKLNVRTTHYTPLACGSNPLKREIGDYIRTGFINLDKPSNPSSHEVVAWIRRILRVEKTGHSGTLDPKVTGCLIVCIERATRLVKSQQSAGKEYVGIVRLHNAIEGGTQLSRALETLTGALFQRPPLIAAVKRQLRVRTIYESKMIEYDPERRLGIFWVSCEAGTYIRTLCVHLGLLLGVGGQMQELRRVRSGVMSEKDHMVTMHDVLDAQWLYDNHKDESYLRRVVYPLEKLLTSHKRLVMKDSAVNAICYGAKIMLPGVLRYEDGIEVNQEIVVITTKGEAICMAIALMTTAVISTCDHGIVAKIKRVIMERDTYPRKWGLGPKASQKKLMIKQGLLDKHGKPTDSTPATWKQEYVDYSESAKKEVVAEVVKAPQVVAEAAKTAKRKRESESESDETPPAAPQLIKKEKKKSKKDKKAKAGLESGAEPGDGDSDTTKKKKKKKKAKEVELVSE
# T1 sequence (Q9NPE3 whole entry partner): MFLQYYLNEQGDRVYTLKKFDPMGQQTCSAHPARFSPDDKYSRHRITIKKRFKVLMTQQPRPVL
# T1 sequence (Q9NX24 whole entry partner): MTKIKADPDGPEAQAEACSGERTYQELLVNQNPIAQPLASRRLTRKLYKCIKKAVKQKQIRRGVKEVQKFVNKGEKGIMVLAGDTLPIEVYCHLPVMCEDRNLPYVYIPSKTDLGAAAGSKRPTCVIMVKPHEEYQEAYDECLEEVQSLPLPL
# T1 sequence (Q9NY12 whole entry partner): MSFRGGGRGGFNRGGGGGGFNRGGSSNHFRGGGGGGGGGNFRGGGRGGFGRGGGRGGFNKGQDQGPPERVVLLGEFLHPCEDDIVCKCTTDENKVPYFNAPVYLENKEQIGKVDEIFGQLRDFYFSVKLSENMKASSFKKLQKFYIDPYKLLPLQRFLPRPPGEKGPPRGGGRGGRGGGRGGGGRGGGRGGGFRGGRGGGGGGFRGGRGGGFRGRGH
# T1 sequence (Q9BUR4 whole entry partner): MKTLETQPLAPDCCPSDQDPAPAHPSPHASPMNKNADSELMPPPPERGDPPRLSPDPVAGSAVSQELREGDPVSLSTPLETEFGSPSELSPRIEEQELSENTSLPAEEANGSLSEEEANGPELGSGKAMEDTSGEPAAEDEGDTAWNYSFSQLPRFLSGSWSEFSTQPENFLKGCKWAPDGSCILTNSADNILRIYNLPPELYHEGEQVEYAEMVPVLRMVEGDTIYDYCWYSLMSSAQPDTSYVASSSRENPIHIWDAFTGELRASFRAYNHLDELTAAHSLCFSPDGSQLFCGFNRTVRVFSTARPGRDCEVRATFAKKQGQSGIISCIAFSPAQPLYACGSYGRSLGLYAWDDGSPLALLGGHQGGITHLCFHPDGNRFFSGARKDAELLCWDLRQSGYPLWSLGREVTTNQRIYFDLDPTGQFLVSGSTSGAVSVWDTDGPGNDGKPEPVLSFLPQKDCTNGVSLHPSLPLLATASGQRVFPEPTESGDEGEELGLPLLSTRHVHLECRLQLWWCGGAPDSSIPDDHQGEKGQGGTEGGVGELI
substance,measurement,value
"5′SH-(CH2)6-TTTTTTAATCCGTCGAGCAGAGTTAGGGTTAGGGTTAGG GTTAGGGTTAG (DNA TTTTTTAATCCGTCGAGCAGAGTTAGGGTTAGGGTTAGGGTTAGGGTTAG; DNA, 5' {SH-C6}, backbone and methylation of C not given here; bead-immobilized telomerase substrate oligo; listed as Homo sapiens) [longer version]",absolute signal relative to the background signal (no telomerase extract),better absolute signal relative to the background signal
